Entries after “also recorded” stand apart in the source; their conditions may differ.
Assays:
[1] = biological target: T1, STS (Homo sapiens, UniProt P08842); assay: STS enzymatic activity in VCaP cells (4-Methylumbelliferyl sulfate microtiter plate cellular assay, fluorescence readout); format: cell-based
T1 construct: A VCaP tumor model that expresses endogenous STS was employed; endogenous in cells; host or cells: VCaP prostate cancer cells
T1 sequence (P08842 22-583): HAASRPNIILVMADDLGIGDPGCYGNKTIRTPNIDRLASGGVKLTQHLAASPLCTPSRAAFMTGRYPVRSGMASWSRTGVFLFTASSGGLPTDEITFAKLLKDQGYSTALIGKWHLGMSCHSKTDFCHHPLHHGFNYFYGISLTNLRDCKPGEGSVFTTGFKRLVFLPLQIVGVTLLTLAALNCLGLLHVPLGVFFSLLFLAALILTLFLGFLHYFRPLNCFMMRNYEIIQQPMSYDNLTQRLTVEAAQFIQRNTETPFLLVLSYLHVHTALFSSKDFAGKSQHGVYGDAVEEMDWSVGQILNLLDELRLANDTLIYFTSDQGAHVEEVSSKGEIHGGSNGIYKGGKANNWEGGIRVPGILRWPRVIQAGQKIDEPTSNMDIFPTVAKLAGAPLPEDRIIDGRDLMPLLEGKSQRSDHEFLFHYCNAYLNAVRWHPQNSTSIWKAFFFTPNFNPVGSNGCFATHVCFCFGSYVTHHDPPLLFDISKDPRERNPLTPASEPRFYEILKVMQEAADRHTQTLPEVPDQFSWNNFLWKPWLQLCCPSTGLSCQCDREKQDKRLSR
Procedure: VCaP cells were treated with 5 μM of different STSi, and STS activity was measured by microtiter plate cellular assay using fluorescence readout.
To evaluate the ability of STSi in inhibition of STS enzymatic activity, VCaP prostate cancer cells were treated with two synthesized STSi and STS enzymatic activity was measured. The activity assay was carried as described by Wolff, et al. (Anal Biochem, 2003. 318(2): p. 276-284). […] FIG. 3 shown the effects of other STSi on STS enzymatic activity in VCaP cells.

[2] = test system: C4-2B, LNCaP, DU145, PC3, CWR22rv1 and VCaP cells; assay: Prostate cancer cell growth assay (cell numbers counted)
[3] = test system: VCaP cells; assay: VCaP cell growth with or without enzalutamide; settings: 3 days; for VCaP cell growth, single agent: 10 μM or 25 μM Si-1 or Si-2, or 20 μM enzalutamide
[4] = test system: MCF-7, MDA-MB-468 and MDA-MB-231 cells; assay: Breast cancer cell growth (cell numbers counted); format: cell-based; settings: different doses, 48 hrs
[5] = test system: VCaP tumors; assay: Castration relapsed VCaP xenograft tumor model; settings: for Ki67 expression in relapsed VCaP tumors, single agent / tumor growth, single agent (combination study): enzalutamide 25 mg/Kg p.o. or Si-1 25 mg/Kg i.p.
Procedure: Tumor volumes were determined twice weekly.
VCaP tumors were allowed to develop in intact SCID mice and the animals were castrated after tumors reached 80-100 mm^3 of size. […] Tumor proliferation and AR expression by IHC was also examined.
The VCaP tumor model was then used to validate the efficacy of combination therapy.

[6] = test system: AR; assay: AR expression by western blot in VCaP cells; settings: 3 days; for AR expression: western blot, 25 μM Si-1 or Si-2 or 20 μM enzalutamide alone
Procedure: (§1) The sensitivity of prostate cancer cells to STS inhibitors was tested using cell growth assays and clonogenic assays. Quantitative reverse transcription-PCR, and Western blotting were performed to detect expression levels of STS and AR. […] Steroid profile including DHEA and androgens was analyzed by Liquid Chromatography-Mass Spectrometry (LC-MS). STS activity was determined by 4-Methylumbelliferyl sulfate assay through a fluorescence microtiter plate reader. PSA secretion was determined by ELISA and PSA-luciferase activity was measured by reporter assay.
(§2) The AR expression was also determined by western blot.

[7] = test system: AR; assay: PSA-luciferase reporter assay (AR transcriptional activity) in VCaP cells; format: cell-based
Procedure: as §1, §2

[8] = cited from earlier work
[9] = in vivo; cited from earlier work
[10] = test system: CWR22Rv1; assay: CWR22Rv1 cell number with Nic-S with or without enzalutamide or abiraterone acetate; format: cell-based
[11] = test system: CWR22-rv1 tumors; assay: CWR22-rv1 tumors in mice, combination treatment with Nic-S and enzalutamide
[12] = test system: Wnt5A; assay: Wnt5A expression by Western blot in C4-2B MDVR cells; format: cell-based; settings: C4-2B MDVR cell lysates, different concentrations

## CCN(C(=O)C1=CCC2C3CCc4cc(OS(N)(=O)=O)ccc4C3CCC12C)C(C)C (stereo not drawn) [Si-1]
[1]
  STS activity: inhibited
[2]; C4-2B and VCaP cells
  growth of C4-2B and VCaP cells: inhibited
[2]; increasing doses, 48 hrs, C4-2B, LNCaP, DU145, PC3, CWR22rv1 and VCaP cells
  cell growth (cell numbers): inhibited cell growth in a dose dependent manner
[3]
  VCaP cell growth, single agent: reduced
[3]; Si-1 or Si-2 with 20 μM enzalutamide
  VCaP cell numbers, combination with enzalutamide: further reduced
[4]
  breast cancer cell growth (cell numbers): inhibits cell growth in a dose dependent manner
[5]; 25 mg/kg/d i.p., 3 weeks
  AR staining / tumor AR expression in VCaP tumors (IHC): significantly suppressed
  Ki67 staining in VCaP tumors (IHC): less
  tumor suppression compared with control: around 60%
[5]; 25 mg/kg/d i.p., castrated mice, 3 weeks
  relapsed VCaP tumor growth / tumor progression: significantly suppressed; also recorded: significantly diminished
[5]; 3 weeks of treatment, control group 300 ng/mL PSA, ELISA
  decrease of serum PSA: 50%
[5]; IHC, Si-1 plus enzalutamide
  Ki67 expression in relapsed VCaP tumors, combination with enzalutamide: further lowered
[5]; IHC
  Ki67 expression in relapsed VCaP tumors, single agent: significantly decreased
[5]; Si-1 25 mg/Kg i.p. plus enzalutamide 25 mg/Kg p.o., 3 weeks
  tumor growth, combined with enzalutamide: further suppressed
[5]; Si-1 25 mg/Kg i.p., 3 weeks
  tumor weight, single agent (combination study): significantly suppressed
[5]; after 3 weeks treatment, 25 mg/kg/d i.p.
  tumor weight: significantly decreased
[5]; compared with control group, 25 mg/kg/d i.p.
  mice body weight: not affected
[5]; 3 weeks
  tumor growth, single agent (combination study): significantly suppressed
[6]; 25 μM Si-1 or Si-2 with 20 μM enzalutamide
  AR expression, combination with enzalutamide: completely suppressed
[6]
  AR expression: significantly suppressed; also recorded: significantly decreased
[7]
  AR transcriptional activity: significantly suppressed

## O=C(Nc1ccc([N+](=O)[O-])cc1Cl)c1cc(Cl)ccc1O [Niclosamide, 2′,5-dichloro-4′-nitrosalicylanilide]
[8]
  solubility: low
[9]
  oral bioavailability: low

## NS(=O)(=O)Oc1ccc(Cl)cc1C(=O)Nc1ccc([N+](=O)[O-])cc1Cl [Niclosamide sulfamate, niclosamide sulfamate]
[10]; 0.5 μM Nic-S with 20 μM enzalutamide or 5 μM abiraterone acetate
  enhancement of Enza/AA treatment: synergistically enhances
[10]; 0.5 μM Nic-S with 20 μM enzalutamide, 3 and 5 days
  enhancement of enzalutamide treatment in vitro: synergistically enhance
[11]; body weight of mice bearing CWR22-rv1 tumors
  toxicity: without obvious toxicity
[11]; tumor volume, mice bearing CWR22-rv1 tumors
  enhancement of enzalutamide treatment in vivo: synergistically enhance
[12]
  Wnt5A expression: inhibit
[12]; listed as Nic-S
  Wnt5A expression: suppresses

## CNC(=O)c1ccc(N2C(=S)N(c3ccc(C#N)c(C(F)(F)F)c3)C(=O)C2(C)C)cc1F [enzalutamide, reference compound]
[3]
  VCaP cell growth, single agent: slightly suppressed
[5]; IHC
  Ki67 expression in relapsed VCaP tumors, single agent: did not affect
[5]; 3 weeks
  tumor growth, single agent (combination study): only slighted delayed
[6]
  AR expression: decreased

Reference: patent publication US20210253628A1, “COMPOUNDS, COMPOSITIONS, AND METHODS FOR TREATMENT OF ANDROGEN-MEDIATED DISEASE” (The Regents of the University of California, priority 2018, published 2021)
